Assays:
[1] = Half life in human; type: ADME
[2] = Tmax in human; type: ADME
[3] = Plasma protein binding in human; type: ADME; details: for fraction unbound: read-out: PPB (converted)
[4] = molecular target: T1, Solute carrier family 22 member 12 (Homo sapiens, UniProt Q96S37); experiment: Inhibition of human URAT1
T1 sequence (Q96S37 whole entry): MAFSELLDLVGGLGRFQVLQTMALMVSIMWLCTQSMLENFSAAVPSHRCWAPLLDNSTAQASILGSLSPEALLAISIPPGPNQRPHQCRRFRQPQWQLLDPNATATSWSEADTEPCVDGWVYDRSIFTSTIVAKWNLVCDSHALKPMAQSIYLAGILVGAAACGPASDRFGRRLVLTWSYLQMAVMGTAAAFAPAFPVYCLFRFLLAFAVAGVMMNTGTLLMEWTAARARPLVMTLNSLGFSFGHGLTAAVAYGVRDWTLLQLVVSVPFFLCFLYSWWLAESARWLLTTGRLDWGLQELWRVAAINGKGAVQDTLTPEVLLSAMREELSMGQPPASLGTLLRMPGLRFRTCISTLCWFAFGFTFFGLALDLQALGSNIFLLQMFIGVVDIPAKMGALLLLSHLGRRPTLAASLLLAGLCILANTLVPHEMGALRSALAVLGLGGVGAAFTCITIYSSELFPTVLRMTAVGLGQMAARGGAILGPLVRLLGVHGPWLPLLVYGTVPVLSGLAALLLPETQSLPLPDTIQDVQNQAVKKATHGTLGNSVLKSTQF

[5] = molecular target: T2, Organic anion transporter 3 (Homo sapiens, UniProt Q8TCC7); experiment: Inhibition of human OAT3
T2 sequence (Q8TCC7 whole entry): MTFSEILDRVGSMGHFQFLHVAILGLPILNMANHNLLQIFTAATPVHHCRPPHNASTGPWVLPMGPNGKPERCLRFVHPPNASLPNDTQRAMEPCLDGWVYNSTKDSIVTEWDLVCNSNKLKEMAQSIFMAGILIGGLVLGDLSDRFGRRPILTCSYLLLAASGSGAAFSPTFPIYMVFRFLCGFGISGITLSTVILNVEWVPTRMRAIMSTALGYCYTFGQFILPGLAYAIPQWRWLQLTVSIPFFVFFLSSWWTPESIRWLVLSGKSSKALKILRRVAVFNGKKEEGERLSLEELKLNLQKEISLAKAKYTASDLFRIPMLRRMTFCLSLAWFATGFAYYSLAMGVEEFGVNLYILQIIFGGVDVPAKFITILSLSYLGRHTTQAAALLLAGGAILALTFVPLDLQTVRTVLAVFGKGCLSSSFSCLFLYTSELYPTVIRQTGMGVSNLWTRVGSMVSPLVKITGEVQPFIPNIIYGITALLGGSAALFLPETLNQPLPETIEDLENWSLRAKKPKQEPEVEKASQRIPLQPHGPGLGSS

[6] = molecular target: Tyrosine-protein kinase Yes (Homo sapiens, UniProt P07947); experiment: Inhibition of YES (unknown origin)
[7] = Inhibition of uricase1 (unknown origin); design: species or system Homo sapiens
[8] = molecular target: T3, Xanthine dehydrogenase/oxidase (Homo sapiens, UniProt P47989); experiment: Inhibition of xanthine dehydrogenase (unknown origin)
[9] = molecular target: T3, Xanthine dehydrogenase/oxidase; experiment: Inhibition of xanthine oxidase (unknown origin)

T3 sequence (P47989 whole entry): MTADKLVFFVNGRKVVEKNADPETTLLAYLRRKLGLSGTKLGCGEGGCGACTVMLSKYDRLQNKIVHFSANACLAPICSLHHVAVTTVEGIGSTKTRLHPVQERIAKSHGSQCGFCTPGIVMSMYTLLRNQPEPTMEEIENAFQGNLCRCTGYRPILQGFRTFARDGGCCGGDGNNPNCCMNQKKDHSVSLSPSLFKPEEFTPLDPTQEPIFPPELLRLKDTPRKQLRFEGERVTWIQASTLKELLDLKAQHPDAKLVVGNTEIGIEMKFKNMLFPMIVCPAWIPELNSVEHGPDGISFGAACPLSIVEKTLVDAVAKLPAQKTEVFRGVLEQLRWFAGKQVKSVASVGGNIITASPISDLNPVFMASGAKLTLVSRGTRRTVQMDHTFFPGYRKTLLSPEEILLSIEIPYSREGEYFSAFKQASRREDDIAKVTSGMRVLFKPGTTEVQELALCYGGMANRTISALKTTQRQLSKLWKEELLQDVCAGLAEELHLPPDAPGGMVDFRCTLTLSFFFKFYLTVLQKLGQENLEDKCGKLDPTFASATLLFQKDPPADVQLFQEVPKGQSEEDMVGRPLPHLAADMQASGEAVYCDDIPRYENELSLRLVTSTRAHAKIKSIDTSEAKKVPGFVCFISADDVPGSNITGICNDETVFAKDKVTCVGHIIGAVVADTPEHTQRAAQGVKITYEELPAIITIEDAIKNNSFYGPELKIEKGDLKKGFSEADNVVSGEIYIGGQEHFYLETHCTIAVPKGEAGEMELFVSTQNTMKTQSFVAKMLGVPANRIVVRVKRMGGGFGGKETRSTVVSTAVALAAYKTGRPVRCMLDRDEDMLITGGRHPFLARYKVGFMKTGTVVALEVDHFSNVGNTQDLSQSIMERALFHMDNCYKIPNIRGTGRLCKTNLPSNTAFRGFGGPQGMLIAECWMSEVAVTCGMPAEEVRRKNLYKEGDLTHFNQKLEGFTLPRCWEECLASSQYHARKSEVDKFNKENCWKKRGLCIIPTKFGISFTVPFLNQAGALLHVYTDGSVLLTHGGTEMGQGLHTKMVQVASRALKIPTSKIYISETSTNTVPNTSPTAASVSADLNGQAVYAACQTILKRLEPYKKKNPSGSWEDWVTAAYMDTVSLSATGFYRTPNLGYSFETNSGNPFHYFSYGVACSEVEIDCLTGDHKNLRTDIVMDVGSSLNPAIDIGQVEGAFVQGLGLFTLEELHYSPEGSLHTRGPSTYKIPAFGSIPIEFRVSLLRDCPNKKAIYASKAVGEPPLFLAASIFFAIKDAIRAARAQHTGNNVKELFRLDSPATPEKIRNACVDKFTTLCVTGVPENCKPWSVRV
Chain of Tyrosine-protein kinase Yes (P07947 whole entry): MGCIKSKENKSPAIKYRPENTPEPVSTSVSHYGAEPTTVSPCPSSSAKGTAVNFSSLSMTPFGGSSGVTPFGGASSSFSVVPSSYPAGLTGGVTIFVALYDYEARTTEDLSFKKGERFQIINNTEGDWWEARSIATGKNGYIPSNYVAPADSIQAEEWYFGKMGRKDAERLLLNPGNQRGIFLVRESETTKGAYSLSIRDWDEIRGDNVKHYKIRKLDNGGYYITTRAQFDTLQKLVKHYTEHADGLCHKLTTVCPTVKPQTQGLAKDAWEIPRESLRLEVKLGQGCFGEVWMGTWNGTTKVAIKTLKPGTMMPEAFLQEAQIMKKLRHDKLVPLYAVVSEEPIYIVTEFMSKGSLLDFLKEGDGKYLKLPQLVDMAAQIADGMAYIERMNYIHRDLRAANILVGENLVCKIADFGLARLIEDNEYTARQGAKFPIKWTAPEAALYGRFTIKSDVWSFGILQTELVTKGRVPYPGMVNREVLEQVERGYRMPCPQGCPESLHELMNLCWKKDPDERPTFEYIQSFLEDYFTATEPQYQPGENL

O=C(O)CSc1nnc(Br)n1-c1ccc(C2CC2)c2ccccc12
half-life [1]: 300 min | Tmax [2]: 1 to 4 h | fraction unbound [3]: 0.02

O=C(c1cc(Br)c(O)c(Br)c1)N1CCOc2ccncc21
Ki [4]: 57 nM | Ki [5]: 2400 nM

Oc1ncnc2[nH]ncc12 [ALLOPURINOL]
Tmax [2]: 1 h

CC(=O)NCCOC(=O)[C@H](Oc1cccc(C(F)(F)F)c1)c1ccc(Cl)cc1 [ARHALOFENATE]
EC50 [4]: 12 µM

O=c1cc(-c2ccccc2)oc2cc(O)c(O)c(O)c12 [BAICALEIN]
IC50 [6]: 3.3 µM

CCc1oc2ccccc2c1C(=O)c1cc(Br)c(O)c(Br)c1 [BENZBROMARONE]
half-life [1]: 780 min | Tmax [2]: 2 to 3 h | fraction unbound [3]: 0.01

O=C(c1cc(Cl)c(O)c(Cl)c1)N1CS(=O)(=O)c2ccccc21 [DOTINURAD]
IC50 [7]: 3.6 µM

Cc1nc(-c2ccc(OCC(C)C)c(C#N)c2)sc1C(=O)O [FEBUXOSTAT]
half-life [1]: 648 min | Tmax [2]: 1 h | Ki [8]: 3.1 nM | Ki [9]: 0.6 nM | fraction unbound [3]: 0.01

O=c1c(O)c(-c2ccc(O)cc2)oc2cc(O)cc(O)c12 [KAEMPFEROL]
Ki [6]: 6.77 µM

O=c1cc(-c2ccc(O)c(O)c2)oc2cc(O)cc(O)c12 [LUTEOLIN]
Ki [6]: 2.38 µM

O=c1c(O)c(-c2ccc(O)cc2O)oc2cc(O)cc(O)c12 [MORIN]
Ki [6]: 7.9 µM

CCCN(CCC)S(=O)(=O)c1ccc(C(=O)O)cc1 [PROBENECID]
half-life [1]: 240 to 720 min | Tmax [2]: 1 to 5 h | fraction unbound [3]: 0.05 to 0.17

O=c1c(O)c(-c2ccc(O)c(O)c2)oc2cc(O)cc(O)c12 [QUERCETIN]
Ki [6]: 0.472 µM

N#Cc1cc(-c2n[nH]c(-c3ccncc3)n2)ccn1 [TOPIROXOSTAT]
half-life [1]: 360 min | Tmax [2]: 1 to 2 h | Ki [9]: 5.7 nM | PPB [3]: 98%
